B1: ATP-binding cassette sub-family C member 2 (Rattus norvegicus) (protein)
chain: MDKFCNSTFWDLSLLESPEADLPLCFEQTVLVWIPLGFLWLLAPWQLYSVYRSRTKRSSITKFYLAKQVFVVFLLILAAIDLSLALTEDTGQATVPPVRYTNPILYLCTWLLVLAVQHSRQWCVRKNSWFLSLFWILSVLCGVFQFQTLIRALLKDSKSNMAYSYLFFVSYGFQIVLLILTAFSGPSDSTQTPSVTASFLSSITFSWYDRTVLKGYKHPLTLEDVWDIDEGFKTRSVTSKFEAAMTKDLQKARQAFQRRLQKSQRKPEATLHGLNKKQSQSQDVLVLEEAKKKSEKTTKDYPKSWLIKSLFKTFHVVILKSFILKLIHDLLVFLNPQLLKLLIGFVKSSNSYVWFGYICAILMFAVTLIQSFCLQSYFQHCFVLGMCVRTTVMSSIYKKALTLSNLARKQYTIGETVNLMSVDSQKLMDATNYMQLVWSSVIQITLSIFFLWRELGPSILAGVGVMVLLIPVNGVLATKIRNIQVQNMKNKDKRLKIMNEILSGIKILKYFAWEPSFQEQVQGIRKKELKNLLRFGQLQSLLIFILQITPILVSVVTFSVYVLVDSANVLNAEKAFTSITLFNILRFPLSMLPMVTSSILQASVSVDRLERYLGGDDLDTSAIRRVSNFDKAVKFSEASFTWDPDLEATIQDVNLDIKPGQLVAVVGTVGSGKSSLVSAMLGEMENVHGHITIQGSTAYVPQQSWIQNGTIKDNILFGSEYNEKKYQQVLKACALLPDLEILPGGDMAEIGEKGINLSGGQKQRVSLARAAYQDADIYILDDPLSAVDAHVGKHIFNKVVGPNGLLAGKTRIFVTHGIHFLPQVDEIVVLGKGTILEKGSYRDLLDKKGVFARNWKTFMKHSGPEGEATVNNDSEAEDDDDGLIPTMEEIPEDAASLAMRRENSLRRTLSRSSRSSSRRGKSLKNSLKIKNVNVLKEKEKEVEGQKLIKKEFVETGKVKFSIYLKYLQAVGWWSILFIILFYGLNNVAFIGSNLWLSAWTSDSDNLNGTNNSSSHRDMRIGVFGALGLAQGICLLISTLWSIYACRNASKALHGQLLTNILRAPMRFFDTTPTGRIVNRFSGDISTVDDLLPQTLRSWMMCFFGIAGTLVMICMATPVFAIIIIPLSILYISVQVFYVATSRQLRRLDSVTKSPIYSHFSETVTGLPIIRAFEHQQRFLAWNEKQIDINQKCVFSWITSNRWLAIRLELVGNLVVFCSALLLVIYRKTLTGDVVGFVLSNALNITQTLNWLVRMTSEAETNIVAVERISEYINVENEAPWVTDKRPPADWPRHGEIQFNNYQVRYRPELDLVLKGITCNIKSGEKVGVVGRTGAGKSSLTNCLFRILESAGGQIIIDGIDVASIGLHDLRERLTIIPQDPILFSGSLRMNLDPFNKYSDEEVWRALELAHLRSFVSGLQLGLLSEVTEGGDNLSIGQRQLLCLGRAVLRKSKILVLDEATAAVDLETDSLIQTTIRKEFSQCTVITIAHRLHTIMDSDKIMVLDNGKIVEYGSPEELLSNRGSFYLMAKEAGIENVNHTEL

Assays:
[1] = target: T1, ATP-binding cassette sub-family C member 2 (Rattus norvegicus, UniProt Q63120); test: TP_TRANSPORTER: inhibition of 5-methyltetrahydrofolate uptake in bile canalicular membrane vesicles from SD rat; type: functional, cell membranes, Sprague-Dawley, Bile canalicular membrane vesicle
[2] = target: T1, ATP-binding cassette sub-family C member 2; test: TP_TRANSPORTER: inhibition of DNP-SG uptake in bile canalicular membrane vesicles from SD rat; type: functional, cell membranes, Sprague-Dawley, Bile canalicular membrane vesicle
[3] = substrate: CN1c2c(nc(N)[nH]c2=O)NC[C@@H]1CNc1ccc(C(=O)N[C@@H](CCC(=O)O)C(=O)O)cc1; test: cells, lysate or membranes named

Molecule | Ki [2] | further results
N[C@@H](CCC(=O)N[C@H](CSc1ccc([N+](=O)[O-])cc1[N+](=O)[O-])C(=O)NCC(=O)O)C(=O)O | – | Ki [1]: 34.5 µM
Nc1nc2c(c(=O)[nH]1)N1CN(c3ccc(C(=O)N[C@@H](CCC(=O)O)C(=O)O)cc3)CC1CN2 (stereo not given in full) [FOLITIXORIN] | 269 µM | –
CN1c2c(nc(N)[nH]c2=O)NC[C@@H]1CNc1ccc(C(=O)N[C@@H](CCC(=O)O)C(=O)O)cc1 [LEVOMEFOLIC ACID] | 121 µM | –
Nc1nc2c(c(=O)[nH]1)NC(CNc1ccc(C(=O)N[C@@H](CCC(=O)O)C(=O)O)cc1)CN2 (stereo not given in full) [TETRAHYDROFOLATE] | 358 µM | –
B1 | – | Km [3]: 126 µM
